The nature of data set [1]: Metabolic stability evaluation in human liver microsomes. The data set is classed as in vitro ADME. Particulars: pH 7.4, Human liver microsome, 0.5 mg/mL protein, 1 μM compound. How it is done: (2) Metabolic Stability Evaluation
Microsome assay: human liver microsomes: 0.5 mg/mL, Xenotech; rat liver microsomes: 0.5 mg/mL, Xenotech; coenzyme (NADPH/NADH): 1 mM, Sigma Life Science; magnesium chloride: 5 mM, 100 mM phosphate buffer (pH 7.4).
Preparation of stock solutions: Powder of the example compounds were accurately weighed and dissolved in DMSO to 5 mM respectively.
Preparation of phosphate buffer (100 mM, pH7.4): A pre-prepared 0.5M potassium dihydrogen phosphate (150 mL) was mixed with 0.5M dibasic potassium phosphate (700 mL). The pH of the mixture was adjusted to 7.4 with 0.5M dibasic potassium phosphate solution. The mixture was diluted 5-fold with ultrapure water before use, and magnesium chloride was added to obtain a phosphate buffer (100 mM) containing 100 mM potassium phosphate, 3.3 mM magnesium chloride, pH 7.4.
A NADPH regeneration system solution (containing 6.5 mM NADP, 16.5 mM G-6-P, 3 U/mL G-6-P D, 3.3 mM magnesium chloride) was prepared and placed on wet ice prior to use.
Preparation of stop solution: an acetonitrile solution containing 50 ng/mL propranolol hydrochloride and 200 ng/mL tolbutamide (internal standard). 25057.5 μL of phosphate buffer (pH 7.4) was taken into a 50 mL centrifuge tube, to which 812.5 μL of human liver microsomes were added, and mixed to obtain a liver microsome dilution with a protein concentration of 0.625 mg/mL. 25057.5 μL of phosphate buffer (pH 7.4) was taken into a 50 mL centrifuge tube, to which 812.5 μL of SD rat liver microsomes were added, and mixed to obtain a liver microsome dilution with a protein concentration of 0.625 mg/mL.
Incubation of the samples: The stock solutions of the respective compounds were respectively diluted to 0.25 mM with an aqueous solution containing 70% acetonitrile, and used as a working solution, ready for use. 398 μL of the dilutions of human liver microsomes and rat liver microsomes were added to 96-well incubation plates (N=2), respectively, and 2 μL of 0.25 mM working solution was added respectively and mixed.
Metabolic stability assay: 300 μL of pre-chilled stop solution was added to each well of 96-well deep well plates and placed on ice as stop plates. The 96-well incubation plates and NADPH regeneration system were placed in a 37° C. water bath, shaken at 100 rpm and pre-incubated for 5 min. 80 μL of incubation solution was taken out from each well of the incubation plates and added to the stop plates, mixed, and replenished with 20 μL of NADPH regeneration system solution as a 0-min sample. 80 μL of NADPH regeneration system solution was added to each well of the incubation plates to start the reaction and start counting. […] Separately, 100 μL of the reaction solutions was taken at 10, 30, and 90 min after the reaction, respectively, added to stop plates, and vortexed for 3 minutes to terminate the reaction. The stop plates were centrifuged at 5000×g at 4° C. for 10 min. 100 μL of the supernatant was added to a 96-well plate to which 100 μL of distilled water was previously added, mixed, and analyzed by LC-MS/MS.
Data analysis: The peak areas of the corresponding compounds and internal standard were detected by LC-MS/MS system, and the ratio of the peak area of the compounds to the internal standard was calculated.
The metabolic stability of the compounds in human and rat liver microsomes was evaluated by simultaneously testing and comparing the compounds disclosed herein and the non-deuterated compound. The non-deuterated compound MGL-3196 was used as a control sample.

The conditions of data set [2]: preclinical toxicology, clinical phase 1 and phase II data; cited from earlier work.

For orientation: half-life means how long it takes for the measured level to halve. Usually microsomal CLint stands for a measure of how fast metabolising enzymes remove a compound, apart from limits set by blood flow.

For the compound `CC(C)c1cc(Oc2c(Cl)cc(-n3nc(C#N)c(=O)[nH]c3=O)cc2Cl)n[nH]c1=O` [MGL-3196, 2-(3,5-dichloro-4-((5-isopropyl-6-oxo-1,6-dihydropyridazin-3-yl)oxy)phenyl)-3,5-dioxo-2,3,4,5-tetrahydro-1,2,4-triazine-6-carbonitrile, reference compound], in data set [1], the half-life at 1 μM is < 8.33 h and the microsomal CLint at 1 μM is 2.5 to 3 µL/min/mg. Besides, in data set [2], the “effect on the central thyroid axis, heart rate or bone” value is given as “no inhibitory effect” and the liver enzymes result is “no increase of the liver enzymes has been observed”.

For `[2H]C([2H])([2H])C(c1cc(Oc2c(Cl)cc(-n3nc(C#N)c(=O)[nH]c3=O)cc2Cl)n[nH]c1=O)C([2H])([2H])[2H]` [Compound M-2, 2-(3,5-dichloro-4-((6-oxo-5-(propan-2-yl-1,1,1,3,3,3-d6)-1,6-dihydropyridazin-3-yl)oxy)phenyl)-3,5-dioxo-2,3,4,5-tetrahydro-1,2,4-triazine-6-carbonitrile], in data set [1], the half-life at 1 μM is > 16.7 h and the microsomal CLint at 1 μM was 0.1 to 2 µL/min/mg.

For `[2H]C([2H])([2H])C(C)c1cc(Oc2c(Cl)cc(-n3nc(C#N)c(=O)[nH]c3=O)cc2Cl)n[nH]c1=O` (stereo not drawn) [Compound M-1, 2-(3,5-dichloro-4-((6-oxo-5-(propan-2-yl-1,1,1-d3)-1,6-dihydropyridazin-3-yl)oxy)phenyl)-3,5-dioxo-2,3,4,5-tetrahydro-1,2,4-triazine-6-carbonitrile], in data set [1], the half-life at 1 μM was > 16.7 h and the microsomal CLint at 1 μM lay within 0.1 to 2 µL/min/mg.

`[2H]c1c(Cl)c(Oc2cc(C(C)C)c(=O)[nH]n2)c(Cl)c([2H])c1-n1nc(C#N)c(=O)[nH]c1=O` [Compound M-4, 2-(3,5-dichloro-4-((5-isopropyl-6-oxo-1,6-dihydropyridazin-3-yl)oxy)phenyl-2,6-d2)-3,5-dioxo-2,3,4,5-tetrahydro-1,2,4-triazine-6-carbonitrile]: in data set [1], the half-life at 1 μM was > 16.7 h and the intrinsic metabolic clearance (microsomal CLint) at 1 μM lay in the range of 0.1 to 2 µL/min/mg.

As for `[2H]c1c(Cl)c(Oc2cc(C(C([2H])([2H])[2H])C([2H])([2H])[2H])c(=O)[nH]n2)c(Cl)c([2H])c1-n1nc(C#N)c(=O)[nH]c1=O` [Compound M-3, 2-(3,5-dichloro-4-((6-oxo-5-(propan-2-yl-1,1,1,3,3,3-d6)-1,6-dihydropyridazin-3-yl)oxy)phenyl-2,6-d2)-3,5-dioxo-2,3,4,5-tetrahydro-1,2,4-triazine-6-carbonitrile], in data set [1], the half-life at 1 μM is > 16.7 h and the microsomal CLint at 1 μM was in the range of 0.1 to 2 µL/min/mg.

The record behind these values is patent publication US11485729B2, “Substituted pyridazinone compound” (Shenzhen TargetRx, Inc., priority 2018, dated 2022).
